Reference: patent US20250002597A1, “METHOD FOR OPTIMIZING DRUG SELECTION” (priority 2023, published 2025)

Test system: T-lymphocytes
Assay: Lymphocyte toxicity assay (LTA)
Format: cell-based, human
Settings: for Viability %: post-mastectomy
Text: The present invention is particularly effective in determining the efficacy of the drug alone by measuring the lymphocyte toxicity assay and then combining the prescribed drug with various anabolic steroidal compounds.
Exemplifying the present invention is Table 2 below which sets forth a lymphocyte toxicity assay for a post-mastectomy treatment for reducing pain by measuring the efficacy of combining a known drug, Inflectra, with a steroidal compound which is an anti-tumor necrosis alpha inhibitor as the base.

[1] = single therapeutic, patient blood cells, untreated cell control = 100%

**Q.** How did the Viability % [1] turn out when `C[C@]12CC[C@H]3[C@@H](CCC4=CC(=O)CC[C@@H]43)[C@@H]1CC[C@@H]2O` [Nandrolone] was run?
**A.** The Viability % was 158%.

**Q.** “INFLECTRA: known drug; anti-tumor necrosis alpha inhibitor” was tested. Which Viability % [1] did it give?
**A.** The Viability % was 160%.

**Q.** With `C[C@]12COC(=O)C[C@@H]1CC[C@@H]1[C@@H]2CC[C@@]2(C)[C@H]1CC[C@]2(C)O` [Oxandrolone] as the compound, how does the Viability % [1] read?
**A.** Its Viability % is 117%.

**Q.** `C[C@]12CC[C@H]3[C@@H](CCC4=CC(=O)CC[C@@]43C)[C@@H]1CC[C@@H]2O` [Testosterone] was tested. Which Viability % [1] did it give?
**A.** The Viability % was 150%.

**Q.** With `C[C@]12Cc3c[nH]nc3C[C@@H]1CC[C@@H]1[C@@H]2CC[C@@]2(C)[C@H]1CC[C@]2(C)O` [Stanozolol] as the compound, how does the “Toxicity to the cells (interpretation in words)” value (patient blood cells exposed to the therapeutics) read?
**A.** Its value is “The only medication that was toxic to the cell was Stanozolol. However, the combination of Stanozolol”.

**Q.** And the Toxicity [1]?
**A.** The Toxicity was 14%.
